Data as given in patent US20190315823A1, “SMALL CATIONIC ANTI-BIOFILM AND IDR PEPTIDES” (priority 2013, published 2019).
Ends that are not written are not given here.

Legend:
[1] = test system: human peripheral blood mononuclear cells (MCP-1); assay: SPOT-synthesized derivative screen: production of chemokine MCP-1; assay type: cell-based; conditions: Table 12, No LPS, human PBMC, peptide at ~18-24 μM; for MCP1: background subtracted 139 (HH2 derivatives), 170 (1018 derivatives), 242 (1002 and hybrid peptides) pg/ml
Description: Venous blood (20 ml) from healthy volunteers was collected in Vacutainer® collection tubes containing sodium heparin as an anticoagulant (Becton Dickinson, Mississauga, ON) in accordance with UBC ethical approval and guidelines. Blood was diluted 1:1 with complete RPMI 1640 medium and separated by centrifugation over a Ficoll-Paque® Plus (Amersham Biosciences, Piscataway, N.J., USA) density gradient. White blood cells were isolated from the buffy coat, washed twice in RPMI 1640 complete medium, and the number of peripheral blood mononuclear cells (PBMC) was determined by Trypan blue exclusion. PBMC (5×10^5) were seeded into 12-well tissue culture dishes (Falcon; Becton Dickinson) at 0.75 to 1×10^6 cells/ml at 37° C. in 5% CO2. The above conditions were chosen to mimic conditions for circulating blood monocytes entering tissues at the site of infection via extravasation.
Following incubation of the cells under various treatment regimens, the tissue culture supernatants were centrifuged at 1000×g for 5 min, then at 10,000×g for 2 min to obtain cell-free samples. Supernatants were aliquoted and then stored at −20° C. prior to assay for various chemokines by capture ELISA (eBioscience and BioSource International Inc., CA, USA respectively)

[2] = test system: LPS-stimulated human peripheral blood mononuclear cells (IL1-β); assay type: cell-based; conditions: Table 12, cells stimulated with 10 ng/ml LPS; for IL1β Production: LPS alone 1313 (HH2 derivatives), 1927 (1018 derivatives), 2455 (1002 and hybrid peptides) pg/ml
Description: LPS from P. aeruginosa strain H103 was highly purified free of proteins and lipids using the Darveau-Hancock method. Briefly, P. aeruginosa was grown overnight in LB broth at 37° C. Cells were collected and washed and the isolated LPS pellets were extracted with a 2:1 chloroform:methanol solution to remove contaminating lipids. Purified LPS samples were quantitated using an assay for the specific sugar 2-keto-3-deoxyoctosonic acid (KDO assay) and then resuspended in endotoxin-free water (Sigma-Aldrich).

[3] = test system: methicillin resistant Staphylococcus aureus (MRSA) biofilm; conditions: approximate peptide concentration […] (around 3 μg/ml); compared to untreated samples
Description: Methods of assessment of anti-biofilm activity—Biofilm formation was initially analyzed using a static abiotic solid surface assay as described elsewhere (de la Fuente-Nunez et al., 2012). Dilutions (1/100) of overnight cultures were incubated in BM2 biofilm-adjusted medium [62 mM potassium phosphate buffer (pH 7), 7 mM (NH4)2SO4, 2 mM MgSO4, 10 μM FeSO4, 0.4% (wt/vol) glucose, 0.5% (wt/vol) Casamino Acids], or a nutrient medium such as Luria Broth, in polypropylene microtiter plates (Falcon, United States) in the absence (control) or presence of peptide. Peptide was added at time zero (prior to adding the diluted, overnight cultures) in varying concentrations, and the decrease in biofilm formation was recorded at 22-46 h for most bacteria. Planktonic cells were removed, biofilm cells adhering to the side of the tubes were stained with crystal violet, and absorbance at 595 nm was measured using a microtiter plate reader (Bio-Tek Instruments Inc., United States). Some peptides were screened against two Gram negative organisms, P. aeruginosa and K. pneumoniae using a Bioflux apparatus (AutoMate Scientific, Berkeley, Calif.; http://www.autom8.com/bioflux_biofilm.html), which allows for the high-throughput, real-time analysis of biofilms.

Substance	Fold increase in MCP1 cf. untreated cells [1]	MCP1 [1] [pg/mL]	Fold change in IL1β relative to no peptide LPS stimulated cells [2]	IL1β Production [2] [pg/mL]	% Biofilm inhibition [3] [%]
1018-R4: single substituted 1018 peptide (VRLRVAVRIWRR-NH2) [Peptide 1018-R4]	0.6	-65	0.47	615	58
1018-K12: single substituted 1018 peptide (VRLIVAVRIWRK-NH2) [Peptide 1018-K12]	4.1	531	0.10	127	67
1018-A4: single substituted 1018 peptide (VRLAVAVRIWRR-NH2) [Peptide 1018-A4]	0.5	-88	0.40	521	38
1018-W11: single substituted 1018 peptide (VRLIVAVRIWWR-NH2) [Peptide 1018-W11]	0.8	-28	0.62	814	53
HH2-A5: single substituted HH2 peptide (VQLRARVAVIRA-NH2)	1.3	59	1.60	2095	45
1018-I12: single substituted 1018 peptide (VRLIVAVRIWRI-NH2) [Peptide 1018-I12]	19	3003	0.24	314	57
1018-W6: single substituted 1018 peptide (VRLIVWVRIWRR-NH2) [Peptide 1018-W6]	0.7	-54	0.24	310	75
HH2-K1: single substituted HH2 peptide (KQLRIRVAVIRA-NH2)	6.7	968	1.08	1423	55
1018-I1: single substituted 1018 peptide (IRLIVAVRIWRR-NH2) [Peptide 1018-I1]	18	2873	0.11	138	56
HH2-K12: single substituted HH2 peptide (VQLRIRVAVIRK-NH2)	15	2329	0.92	1203	67
1002-R2: single substituted 1002 peptide (VRRWLIVWRIRK-NH2) [Peptide 1002-R2]	4.5	840.0	0.05	127	60
HH2-K5: single substituted HH2 peptide (VQLRKRVAVIRA-NH2)	12	1923	1.19	1559	27
1018-K8: single substituted 1018 peptide (VRLIVAVKIWRR-NH2) [Peptide 1018-K8]	8.3	1237	0.18	242	65
1002-W1: single substituted 1002 peptide (WQRWLIVWRIRK-NH2) [Peptide 1002-W1]	3.6	622.0	0.05	127	76
1002-V2: single substituted 1002 peptide (VVRWLIVWRIRK-NH2) [Peptide 1002-V2]	22.5	5209.2	0.05	127	72
HH2-Q9: single substituted HH2 peptide (VQLRIRVAQIRA-NH2)	34	5588	1.01	1321	43
1002-A4: single substituted 1002 peptide (VQRALIVWRIRK-NH2) [Peptide 1002-A4]	0.9	-36.2	0.27	655	52
1002-L2: single substituted 1002 peptide (VLRWLIVWRIRK-NH2) [Peptide 1002-L2]	9.1	1968.2	0.05	127	72
1018-Q6: single substituted 1018 peptide (VRLIVQVRIWRR-NH2) [Peptide 1018-Q6]	0.7	-54	0.14	186	55
1002-R12: single substituted 1002 peptide (VQRWLIVWRIRR-NH2) [Peptide 1002-R12]	2.1	270.8	0.05	127	62
1002-L11: single substituted 1002 peptide (VQRWLIVWRILK-NH2) [Peptide 1002-L11]	9.5	2048.4	0.05	127	61
HH2-L4: single substituted HH2 peptide (VQLLIRVAVIRA-NH2)	18	2884	0.61	800	54
1002-W7: single substituted 1002 peptide (VQRWLIWWRIRK-NH2) [Peptide 1002-W7]	1.5	128.3	0.05	127	62
1018-A5: single substituted 1018 peptide (VRLIAAVRIWRR-NH2) [Peptide 1018-A5]	1.3	57	0.57	752	54
1002-Q8: single substituted 1002 peptide (VQRWLIVQRIRK-NH2) [Peptide 1002-Q8]	0.9	-36.2	0.66	1608	20
